This data set concerns the target T1, OATP1B1 (Homo sapiens, UniProt Q9Y6L6).
T1 construct: expressed in transfected cells; host or cells: HEK293 cells
T1 sequence (Q9Y6L6 1-691): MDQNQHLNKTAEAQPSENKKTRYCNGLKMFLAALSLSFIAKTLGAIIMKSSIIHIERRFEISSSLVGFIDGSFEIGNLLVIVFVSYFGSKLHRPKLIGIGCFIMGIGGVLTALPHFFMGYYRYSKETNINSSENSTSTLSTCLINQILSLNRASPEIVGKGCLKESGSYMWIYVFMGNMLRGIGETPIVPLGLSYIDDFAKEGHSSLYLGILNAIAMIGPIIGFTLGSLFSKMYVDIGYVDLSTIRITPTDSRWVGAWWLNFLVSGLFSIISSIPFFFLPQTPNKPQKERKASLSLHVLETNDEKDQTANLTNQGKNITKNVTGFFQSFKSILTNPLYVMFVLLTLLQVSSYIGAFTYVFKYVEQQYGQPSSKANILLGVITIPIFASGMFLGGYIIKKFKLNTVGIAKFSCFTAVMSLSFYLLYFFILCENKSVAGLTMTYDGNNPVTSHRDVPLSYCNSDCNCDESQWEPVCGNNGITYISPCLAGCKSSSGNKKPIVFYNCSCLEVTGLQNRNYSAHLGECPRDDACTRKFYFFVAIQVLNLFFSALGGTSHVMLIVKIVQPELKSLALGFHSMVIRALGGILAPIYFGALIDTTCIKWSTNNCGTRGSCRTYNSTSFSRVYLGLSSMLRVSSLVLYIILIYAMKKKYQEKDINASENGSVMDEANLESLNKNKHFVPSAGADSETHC
Nature of the data set: Inhibition of transporters, OATP1B1 (HEK293 cells). In kind it is in vitro ADME.

Each structure is given as a SMILES string. Where a name gives a salt, the structure may show the parent alone.

Take `CC1(C)SC(Nc2ccccc2O)=N[C@@H]1C(=O)O` [Compound 1, (R)-2-(2-hydroxyphenylamino)-5,5-dimethyl-4,5-dihydrothiazole-4-carboxylic acid mono-hydrochloride]: the “inhibition of OATP1B1 (in words)” value was “does not inhibit”.

The values above are taken from US20200246317A1, “METHODS OF TREATING DIABETIC NEUROPATHY WITH A THIAZOLINE ANTI-HYPERALGESIC AGENT” (CERSCI THERAPEUTICS, INC., priority 2019, published 2020).
